Tests used:
[1] = system: whitefly (Trialeurodes vaporariorum); experiment: Trialeurodes test (Example 2), sprayed red sage infested by whitefly, evaluated at 15, 19 and 25 days; type: in vivo; conditions: 100 g/ha
Experimental: (§1) To produce a suitable preparation of active compound, a commercial formulation of active compound or active compound combination is mixed with water until the desired concentration is reached.
Red sage (Lantana camara) which is heavily infested by the whitefly (Trialeurodes vaporariorum) is sprayed in intervals of 7 days in each case with a preparation of active compound at the desired application rate.
Evaluation is carried out 15, 19 and 25 days after the second treatment. 100% means that all flies have been […], whilst 0% means that none of the flies have been killed.

[2] = system: whitefly (Trialeurodes vaporariorum); experiment: Trialeurodes test (Example 1), sprayed red sage infested by all stages of whitefly; type: in vivo; conditions: 100 g/ha, sprayed on Lantana camara at 7-day intervals; evaluation 15 days after the second treatment
Experimental: as §1
Red sage (Lantana camara) which is heavily infested by all stages of the whitefly (Trialeurodes vaporariorum) is sprayed in intervals of 7 days in each case with a preparation of active compound at the desired application rate.
Evaluation is carried out 15 days after the second treatment. 100% means that all flies have been killed, whilst 0% means that none of the flies have been killed.

N#C/N=C1\SCCN1Cc1ccc(Cl)nc1 [(16) thiacloprid, thiacloprid]
Kill rate in % 15 days after the second treatment ([1]; 15 days after the second treatment): 72.8%
Kill rate in % 19 days after the second treatment ([1]; 19 days after the second treatment): 39.5%
Kill rate in % 25 days after the second treatment ([1]; 25 days after the second treatment): 0%
Kill rate in % [2]: 72.8%
